Measured values published in patent publication US12528792B2, “Sulfonamide compounds and the use thereof in the treatment of cancer” (TROBIO THERAPEUTICS PTY LTD, priority 2019, dated 2026).

Columns and labels:
[1] = tested on: A2780 (ovarian) cells; assay: Anti-proliferative activity, Cell-Titre luminescent viability assay; format: cell-based; conditions: Homo sapiens, 72 h exposure, Cell-Titre luminescent reagent
Description: (§1) The ability of compounds of the disclosure to inhibit the proliferation of cancer cells representative of non-small cell lung cancer and ovarian cancer (Table 1), and pancreatic cancer, colorectal cancer and prostate cancer (Table 2) was assessed. Briefly, a predetermined number of cells as calculated from cell growth assays for each of the cell lines employed were seeded into their respective culture medium (using ATCC culture parameters—http://www.atcc.org) and cultured for 24 h at 37° C. and 5% CO2 in 96-well culture plates. Once attached, each cell line was then exposed to various concentrations of each respective analogue (100, 30, 10, 3, 1 and 0.3 µM or 30, 10, 3, 1, 0.3 and 0.1 μM), cultured for a further 72 h and exposed to Cell-Titre luminescent reagent (100 μL/well) for a further 30 min. Luminescence was captured using an EnVision multilabel reader and the data for each analogue concentration compared against no treatment control. Cell viability was normalised to control (vehicle alone) and dose response curves, and half maximal effective concentration (EC50) values were determined using Graph Pad Prism 6 (nonlinear regression sigmoidal dose-response variable slope).

[2] = tested on: A549 (NSCLC) cells; assay: as above; format: cell-based; conditions: Homo sapiens, 72 h exposure, Cell-Titre luminescent reagent
Description: as §1

Row | Structure (SMILES) | IC50 [1] [µM] | IC50 [2] [µM]
1 | O=C(Nc1ccc(F)c(Cl)c1)c1ccn(S(=O)(=O)c2ccc3[nH]ccc3c2)n1 [Compound 82, 1-((1H-indol-5-yl)sulfonyl)-N-(3-chloro-4-fluorophenyl)-1H-pyrazole-3-carboxamide] | 10.5 | 16.1
2 | O=C(Nc1ccc(Cl)c(F)c1)c1ccn(S(=O)(=O)c2ccc3[nH]ccc3c2)n1 [Compound 81, 1-((1H-indol-5-yl)sulfonyl)-N-(4-chloro-3-fluorophenyl)-1H-pyrazole-3-carboxamide] | 9.33 | > 30
3 | O=C(Nc1ccc(F)nc1)c1ccn(S(=O)(=O)c2ccc3[nH]ccc3c2)c1 [Compound 74, 1-((1H-indol-5-yl)sulfonyl)-N-(6-fluoropyridin-3-yl)-1H-pyrrole-3-carboxamide] | 3.9 | > 30
4 | O=C(Nc1ccc(F)cn1)c1ccn(S(=O)(=O)c2ccc3[nH]ccc3c2)c1 [Compound 72] | > 30 | 3.45
5 | Cn1cc(S(=O)(=O)N2CCC(C(=O)Nc3ccccc3)CC2)cc1C(N)=O [Compound 30, 1-((5-carbamoyl-1-methyl-1H-pyrrol-3-yl)sulfonyl)-N-phenylpiperidine-4-carboxamide] | > 100 | > 100
6 | CCc1ccc(NC(=O)c2ccn(S(=O)(=O)c3ccc4[nH]ccc4c3)c2)cc1 [Compound 40, 1-((1H-indol-5-yl)sulfonyl)-N-(4-ethylphenyl)-1H-pyrrole-3-carboxamide] | 11 | 11.3
7 | O=C(Nc1ccc(F)c(Cl)c1)c1ccn(S(=O)(=O)c2ccc3[nH]ccc3c2)c1 [Compound 70, 1-((1H-indol-5-yl)sulfonyl)-N-(3-chloro-4-fluorophenyl)-1H-pyrrole-3-carboxamide] | 12.2 | 13.8
8 | N#Cc1ccc(NC(=O)c2ccn(S(=O)(=O)c3ccc4[nH]ccc4c3)n2)cc1 [Compound 79, 1-((1H-indol-5-yl)sulfonyl)-N-(4-cyanophenyl)-1H-pyrazole-3-carboxamide] | > 30 | 6.72
9 | CCC(C)c1ccc(NC(=O)c2ccn(S(=O)(=O)c3ccc(C(C)(C)C)cc3)c2)cc1 (stereo not shown) [Compound 91, N-(4-(sec-butyl)phenyl)-1-((4-(tert-butyl)phenyl)sulfonyl)-1H-pyrrole-3-carboxamide] | > 30 | > 30
10 | Cc1cccc(C)c1NC(=O)c1ccn(S(=O)(=O)c2ccc3[nH]ccc3c2)c1 [Compound 51, 1-((1H-indol-5-yl)sulfonyl)-N-(2,6-dimethylphenyl)-1H-pyrrole-3-carboxamide] | 7.2 | 17.9
11 | COc1ccc(NC(=O)c2ccn(S(=O)(=O)c3ccc4[nH]ccc4c3)c2)cc1 [Compound 102, 1-((1H-indol-5-yl)sulfonyl)-N-(4-methoxyphenyl)-1H-pyrrole-3-carboxamide] | 13.4 | 16.1
12 | Cc1ccc(NC(=O)c2ccn(S(=O)(=O)c3cc(C(N)=O)n(C)c3)c2)cc1O [Compound 19, 4-((3-((3-hydroxy-4-methylphenyl)carbamoyl)-1H-pyrrol-1-yl)sulfonyl)-1-methyl-1H-pyrrole-2-carboxamide] | ≥ 100 | > 100
13 | O=C(Nc1ccc(Cl)cn1)c1ccn(S(=O)(=O)c2ccc3[nH]ccc3c2)n1 [Compound 85] | 21.3 | 11.1
14 | CCC(C)c1ccc(NC(=O)c2ccn(S(=O)(=O)c3ccc4[nH]ccc4c3)n2)cc1 (stereo not shown) [Compound 105, 1-((1H-indol-5-yl)sulfonyl)-N-(4-(sec-butyl)phenyl)-1H-pyrazole-3-carboxamide] | 7.51 | 8.51
15 | Cc1cccc(F)c1NC(=O)c1ccn(S(=O)(=O)c2ccc3[nH]ccc3c2)c1 [Compound 55, 1-((1H-indol-5-yl)sulfonyl)-N-(2-fluoro-6-methylphenyl)-1H-pyrrole-3-carboxamide] | > 30 | > 30
16 | O=C(Nc1ccc(Cl)cc1)c1ccn(S(=O)(=O)c2ccc3[nH]ccc3c2)n1 [Compound 77, 1-((1H-indol-5-yl)sulfonyl)-N-(4-chlorophenyl)-1H-pyrazole-3-carboxamide] | > 30 | 19
17 | CCC(C)c1ccc(NC(=O)N2CCN(S(=O)(=O)c3ccc4c(c3)CCN4)CC2)cc1 (stereo not shown) [Compound 12, N-(4-(sec-butyl)phenyl)-4-(indolin-5-ylsulfonyl)piperazine-1-carboxamide] | > 100 | > 100
18 | CC(C)Cc1ccc(NC(=O)c2ccn(S(=O)(=O)c3ccc4[nH]ccc4c3)n2)cc1 [Compound 111, 1-((1H-indol-5-yl)sulfonyl)-N-(4-isobutylphenyl)-1H-pyrazole-3-carboxamide] | 11.4 | 6.85

Row | Structure (SMILES) | IC50 [1] [µM] | IC50 [2] [µM]
19 | CC(C)Cc1ccc(NC(=O)c2ccn(S(=O)(=O)c3ccc4[nH]ccc4c3)c2)cc1F [Compound 99, 1-((1H-indol-5-yl)sulfonyl)-N-(3-fluoro-4-isobutylphenyl)-1H-pyrrole-3-carboxamide] | 4.9 | 7.47
20 | O=C(Nc1c(F)cccc1F)c1ccn(S(=O)(=O)c2ccc3[nH]ccc3c2)c1 [Compound 53, 1-((1H-indol-5-yl)sulfonyl)-N-(2,6-difluorophenyl)-1H-pyrrole-3-carboxamide] | > 30 | > 30
21 | CCC(C)c1ccc(NCC2CCN(S(=O)(=O)c3cc(C(N)=O)n(C)c3)CC2)cc1 (stereo not shown) [Compound 33, 4-((4-(((4-(sec-butyl)phenyl)amino)methyl)piperidin-1-yl)sulfonyl)-1-methyl-1H-pyrrole-2-carboxamide] | 12.1 | > 100
22 | CCC(C)c1ccc(NC(=O)C2CCN(S(=O)(=O)c3cc(C(=O)N(C)C)n(C)c3)CC2)cc1 (stereo not shown) [Compound 27, N-(4-(sec-butyl)phenyl)-1-((5-(dimethylcarbamoyl)-1-methyl-1H-pyrrol-3-yl)sulfonyl)piperidine-4-carboxamide] | > 100 | > 100
23 | Cc1cc(F)cc(NC(=O)c2ccn(S(=O)(=O)c3ccc4[nH]ccc4c3)c2)c1 [Compound 56, 1-((1H-indol-5-yl)sulfonyl)-N-(3-fluoro-5-methylphenyl)-1H-pyrrole-3-carboxamide] | 19.5 | 17.9
24 | CCc1ccccc1NC(=O)C1CCN(S(=O)(=O)c2ccc3[nH]ccc3c2)CC1 [Compound 61, 1-((1H-indol-5-yl)sulfonyl)-N-(2-ethylphenyl)piperidine-4-carboxamide] | > 30 | > 30
25 | O=C(Nc1ccc(F)c(F)c1)c1ccn(S(=O)(=O)c2ccc3[nH]ccc3c2)n1 [Compound 80, 1-((1H-indol-5-yl)sulfonyl)-N-(3,4-difluorophenyl)-1H-pyrazole-3-carboxamide] | 13.2 | 4.84
26 | CC(C)c1ccc(NC(=O)c2ccn(S(=O)(=O)c3ccc4[nH]ccc4c3)c2)cc1F [Compound 95, 1-((1H-indol-5-yl)sulfonyl)-N-(3-fluoro-4-isopropylphenyl)-1H-pyrrole-3-carboxamide] | 5.28 | 7.84
27 | O=C(Nc1ccc(Cl)nc1)c1ccn(S(=O)(=O)c2ccc3[nH]ccc3c2)c1 [Compound 75, 1-((1H-indol-5-yl)sulfonyl)-N-(6-chloropyridin-3-yl)-1H-pyrrole-3-carboxamide] | 26.7 | 18.6
28 | O=C(Nc1ccc2c(c1)OCO2)c1ccn(S(=O)(=O)c2ccc3[nH]ccc3c2)n1 [Compound 117, 1-((1H-indol-5-yl)sulfonyl)-N-(benzo[d][1,3]dioxol-5-yl)-1H-pyrazole-3-carboxamide] | > 30 | > 30
29 | O=C(Nc1ccc(F)cc1)c1ccn(S(=O)(=O)c2ccc3[nH]ccc3c2)n1 [Compound 76, 1-((1H-indol-5-yl)sulfonyl)-N-(4-fluorophenyl)-1H-pyrazole-3-carboxamide] | 23.8 | > 30
30 | CC(C)Cc1ccc(NC(=O)c2ccn(S(=O)(=O)c3ccc4[nH]ccc4c3)c2)cc1 [Compound 98, 1-((1H-indol-5-yl)sulfonyl)-N-(4-isobutylphenyl)-1H-pyrrole-3-carboxamide] | 5.07 | 13.2
31 | Cc1ccc(NC(=O)C2CCN(S(=O)(=O)c3cc(C(N)=O)n(C)c3)CC2)cc1O [Compound 1, 1-((5-carbamoyl-1-methyl-1H-pyrrol-3-yl)sulfonyl)-N-(3-hydroxy-4-methylphenyl)piperidine-4-carboxamide] | > 100 | > 100
32 | COc1ccc(NC(=O)c2ccn(S(=O)(=O)c3ccc4[nH]ccc4c3)c2)cc1F [Compound 103, 1-((1H-indol-5-yl)sulfonyl)-N-(3-fluoro-4-methoxyphenyl)-1H-pyrrole-3-carboxamide] | > 30 | > 30
33 | O=C(Nc1ccc(F)nc1)c1ccn(S(=O)(=O)c2ccc3[nH]ccc3c2)n1 [Compound 86, 1-((1H-indol-5-yl)sulfonyl)-N-(6-fluoropyridin-3-yl)-1H-pyrazole-3-carboxamide] | > 30 | > 30
34 | O=C(Nc1ccc(Cl)cn1)c1ccn(S(=O)(=O)c2ccc3[nH]ccc3c2)c1 [Compound 73] | 11.2 | 2.62
35 | COc1ccc(NC(=O)c2ccn(S(=O)(=O)c3ccc4[nH]ccc4c3)n2)cc1 [Compound 115, 1-((1H-indol-5-yl)sulfonyl)-N-(4-methoxyphenyl)-1H-pyrazole-3-carboxamide] | > 30 | > 30
